In one experiment the target is T1, CDK9/Cyclin T1 (Homo sapiens, UniProt P50750).
T1 construct: purchased Carna Biosciences 04-110
Put plainly: CDK9 enzyme protocol (LANCE ULight TR-FRET kinase assay). Type of experiment: biochemical. The conditions noted are these: 4 nM CDK9/Cyclin T1, 1000 μM ATP, 100 nM U-light MBP peptide, 30 minutes. As for the experimental part:
CDK9 enzyme activities were measured using LANCE ULight TR-FRET kinase assay reagents (PerkinElmer, Waltham, Mass.). Compounds were directly added in 100% DMSO to white low volume assay plates (Perkin Elmer Proxiplate 6008289) using a Labcyte Echo acoustic dispenser. Assay reagents in serine/threonine kinase assay buffer containing 20 mM HEPES, 10 mM MgCl2, 100 mM Na3VO4, and 0.0075% Triton X-100. were added for final reaction mixture concentrations of 1000 μM ATP, 100 nM U-light MBP peptide (Perkin Elmer TRF0109M) and reaction initiated with 4 nM CDK9/Cyclin T1 (Carna Biosciences 04-110). The kinase reaction was carried out for 30 minutes before addition of stopping buffer to a final of 20 mM EDTA and 0.5 nM of LANCE Ultra Europium anti-phospho-MBP antibody (PerkinElmer TRF0201M) in LANCE detection buffer (PerkinElmer CR97-100). The reaction was equilibrated for 1 hour and the signal read in the Perkin Elmer Envision in TR-FRET mode (excitation at 320 nm and emission at 615/665 nm).

A further experiment concerns H929 cells. As to the kind of experiment: Cell viability assay in H929 cells (Cell TiterGlo). The settings on record: Homo sapiens, NCI-H929, 24 hours at 37° C. Type of experiment: cell-based. As for the experimental part: Cell viability assays were performed using A431 or H929 cells. A431 cells were seeded in 96-well plates at 10,000 cells/well, and after overnight incubation, treated with compounds at 2-times the final concentration to result in a dose response of 3-fold dilutions from 10 μM to 0.0005 μM (50 μL/well, 0.1% final DMSO concentration). H929 cells were seeded in 96-well plates at 10,000 cells/well and treated immediately with compounds as described above. After 24 hours at 37° C., cell viability was measured using Cell TiterGlo reagent (Promega) with a luminescence reader. Alternately, cell viability assays were performed in 384-well format. A431 cells were seeded in 384-well plates at 2500 cells/well and, after overnight incubation, treated with compounds in a dose response of 3-fold dilutions from 10 μM to 0.0005 μM (25 nL/well, 0.1% final DMSO concentration). For the H929 viability assay, 25 nL/well of the compounds was dispensed into 384-well plates in a dose response as described above and cells were immediately seeded in 384-well plates at 2500 cells/well. After 24 hours at 37° C., cell viability was measured using Cell TiterGlo reagent (Promega) with a luminescence reader.
In general terms: Cellular ATP, detected with luciferase, serves as a proxy for viable cell number.

T1 sequence (P50750 whole entry): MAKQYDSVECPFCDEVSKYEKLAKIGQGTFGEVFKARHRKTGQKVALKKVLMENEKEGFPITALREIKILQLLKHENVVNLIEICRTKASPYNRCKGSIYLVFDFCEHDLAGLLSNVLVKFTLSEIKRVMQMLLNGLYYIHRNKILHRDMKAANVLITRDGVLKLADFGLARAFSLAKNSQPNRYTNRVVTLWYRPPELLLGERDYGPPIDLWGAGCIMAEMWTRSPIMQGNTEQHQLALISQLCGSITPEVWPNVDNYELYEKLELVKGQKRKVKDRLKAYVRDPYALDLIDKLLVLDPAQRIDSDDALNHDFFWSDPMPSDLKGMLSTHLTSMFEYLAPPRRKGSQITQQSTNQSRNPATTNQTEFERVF
T1 sequence (O60563 whole entry partner): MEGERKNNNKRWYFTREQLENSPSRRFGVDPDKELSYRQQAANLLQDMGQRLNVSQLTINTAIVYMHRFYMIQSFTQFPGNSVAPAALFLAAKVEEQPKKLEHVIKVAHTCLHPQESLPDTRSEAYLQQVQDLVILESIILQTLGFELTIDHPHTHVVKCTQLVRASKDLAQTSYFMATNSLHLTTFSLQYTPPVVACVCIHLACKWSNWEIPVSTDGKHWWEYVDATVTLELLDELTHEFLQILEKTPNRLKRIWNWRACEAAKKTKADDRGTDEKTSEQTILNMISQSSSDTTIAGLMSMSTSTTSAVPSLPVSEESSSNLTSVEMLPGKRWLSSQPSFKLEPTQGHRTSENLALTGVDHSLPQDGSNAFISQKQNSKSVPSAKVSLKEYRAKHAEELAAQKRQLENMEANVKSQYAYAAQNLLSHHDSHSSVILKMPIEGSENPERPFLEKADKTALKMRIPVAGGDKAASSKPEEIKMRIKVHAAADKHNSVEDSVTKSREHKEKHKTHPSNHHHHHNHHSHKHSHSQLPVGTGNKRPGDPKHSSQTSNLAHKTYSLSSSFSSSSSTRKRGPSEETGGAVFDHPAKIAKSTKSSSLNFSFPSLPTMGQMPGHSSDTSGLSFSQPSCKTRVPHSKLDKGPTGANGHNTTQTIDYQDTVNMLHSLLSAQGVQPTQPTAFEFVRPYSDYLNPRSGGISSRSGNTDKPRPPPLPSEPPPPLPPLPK

As for `COc1ccc(F)cc1-c1ncnc2[nH]c(C3=CCN([C@H]4CC[C@H](CC(=O)O)CC4)CC3)cc12` [Example 87, (trans-4-{4-[4-(5-fluoro-2-methoxyphenyl)-7H-pyrrolo[2,3-d]pyrimidin-6-yl]-3,6-dihydropyridin-1(2H)-yl}cyclohexyl)acetic acid], inhibition against CDK9/Cyclin T1 was half-maximal at 300 nM (IC50). The same compound yielded an EC50 in the experiment with H929 cells of 4100 nM.
For `CCN1CCC(C(=O)N2CC=C(c3cc4c(-c5cc(F)ccc5OC)ncnc4[nH]3)CC2)C1` (stereo not shown) [Example 16, (1-ethylpyrrolidin-3-yl){4-[4-(5-fluoro-2-methoxyphenyl)-7H-pyrrolo[2,3-d]pyrimidin-6-yl]-3,6-dihydropyridin-1(2H)-yl}methanone], in that order: 150 nM and 1100 nM.
For `CS(=O)(=O)N1CC=C(c2cc3c(-c4cc(NCc5ccc(C#N)cc5)ccc4F)ncnc3[nH]2)CC1` [Example 30, 4-{[(4-fluoro-3-{6-[1-(methylsulfonyl)-1,2,3,6-tetrahydropyridin-4-yl]-7H-pyrrolo[2,3-d]pyrimidin-4-yl}phenyl)amino]methyl}benzonitrile], in that order: 130 nM and 230 nM.
For the compound `C=CCNC(=O)N1CC=C(c2cc3c(-c4cc(F)ccc4OC)ncnc3[nH]2)CC1` [Example 19, 4-[4-(5-fluoro-2-methoxyphenyl)-7H-pyrrolo[2,3-d]pyrimidin-6-yl]-N-(prop-2-en-1-yl)-3,6-dihydropyridine-1(2H)-carboxamide], the IC50 against CDK9/Cyclin T1 turned out to be 88 nM. In the experiment with H929 cells, this compound showed an EC50 of 180 nM.
For `COc1ccc(F)cc1-c1ncnc2[nH]c(C3=CCC(N[C@@H](C(=O)O)C(C)C)CC3)cc12` (stereo partly drawn) [Example 84, N-{4-[4-(5-fluoro-2-methoxyphenyl)-7H-pyrrolo[2,3-d]pyrimidin-6-yl]cyclohex-3-en-1-yl}-D-valine], in that order: 440 nM and 6400 nM.
For `COc1ccc(F)cc1-c1ncnc2[nH]c(C3=CCN(Cc4ccc(N)cc4)CC3)cc12` [Example 70, 4-({4-[4-(5-fluoro-2-methoxyphenyl)-7H-pyrrolo[2,3-d]pyrimidin-6-yl]-3,6-dihydropyridin-1(2H)-yl}methyl)aniline] the same measures were 91 nM and 160 nM.
Take `COc1ccc(F)cc1-c1ncnc2[nH]c(C3=CCN(Cc4ccncc4)CC3)cc12` [Example 27, 4-(5-fluoro-2-methoxyphenyl)-6-[1-(pyridin-4-ylmethyl)-1,2,3,6-tetrahydropyridin-4-yl]-7H-pyrrolo[2,3-d]pyrimidine]: the IC50 against CDK9/Cyclin T1 was 220 nM. This compound also showed an EC50 in the experiment with H929 cells of 720 nM.
For `COc1ccc(F)cc1-c1ncnc2[nH]c(C3=CCN(C(C)=O)CC3)cc12` [Example 6, 1-{4-[4-(5-fluoro-2-methoxyphenyl)-7H-pyrrolo[2,3-d]pyrimidin-6-yl]-3,6-dihydropyridin-1(2H)-yl}ethanone] the same measures were 42 nM and 410 nM.
`COc1ccc(F)cc1-c1ncnc2[nH]c(C3=CCN(C(=O)C4CCCOC4)CC3)cc12` (stereo not shown) [Example 15, 4-[4-(5-fluoro-2-methoxyphenyl)-7H-pyrrolo[2,3-d]pyrimidin-6-yl]-3,6-dihydropyridin-1(2H)-yl(tetrahydro-2H-pyran-3-yl)methanone] came in with an IC50 at CDK9/Cyclin T1 of 86 nM. The compound also showed a 50% effective concentration (EC50) in the experiment with H929 cells of 210 nM.
For `COc1ccc(F)cc1-c1ncnc2[nH]c(C3=CCC(N[C@H](C(=O)O)C4CCCCC4)CC3)cc12` (stereo partly drawn) [Example 77, (2S)-cyclohexyl({4-[4-(5-fluoro-2-methoxyphenyl)-7H-pyrrolo[2,3-d]pyrimidin-6-yl]cyclohex-3-en-1-yl}amino)acetic acid] the same measures were 290 nM and 600 nM.
At CDK9/Cyclin T1, `COc1ccc(F)cc1-c1ncnc2[nH]c(C3=CCN(C(=O)[C@H]4CC[C@H](C(=O)OC)CC4)CC3)cc12` [Example 73, methyl trans-4-({4-[4-(5-fluoro-2-methoxyphenyl)-7H-pyrrolo[2,3-d]pyrimidin-6-yl]-3,6-dihydropyridin-1(2H)-yl}carbonyl)cyclohexanecarboxylate] displayed an IC50 of 70 nM. A half-maximal effect in the experiment on H929 cells (EC50) was put at 150 nM.
For `COc1ccc(F)cc1-c1ncnc2[nH]c(C3=CCN(Cc4ccc(NC(C)=O)cc4)CC3)cc12` [Example 25, N-[4-({4-[4-(5-fluoro-2-methoxyphenyl)-7H-pyrrolo[2,3-d]pyrimidin-6-yl]-3,6-dihydropyridin-1(2H)-yl}methyl)phenyl]acetamide], in that order: 76 nM and 58 nM.
In turn, `COc1ccc(F)cc1-c1ncnc2[nH]c(C3=CCN(Cc4cccc(C#N)c4)CC3)cc12` [Example 23, 3-({4-[4-(5-fluoro-2-methoxyphenyl)-7H-pyrrolo[2,3-d]pyrimidin-6-yl]-3,6-dihydropyridin-1(2H)-yl}methyl)benzonitrile] came in with an IC50 at CDK9/Cyclin T1 of 270 nM. Besides, in the experiment on H929 cells, the midpoint of the response, the EC50, lay at 420 nM.
For `CN(C)C(=O)N1CC=C(c2cc3c(-c4cccc(F)c4F)ncnc3[nH]2)CC1` [Example 76, 4-[4-(2,3-difluorophenyl)-7H-pyrrolo[2,3-d]pyrimidin-6-yl]-N,N-dimethyl-3,6-dihydropyridine-1(2H)-carboxamide] the same measures were 68 nM and 3500 nM.
Consider `COc1ccc(Cl)cc1-c1ncnc2[nH]c(C3=CCN(S(C)(=O)=O)CC3)cc12` [Example 45, 4-(5-chloro-2-methoxyphenyl)-6-[1-(methylsulfonyl)-1,2,3,6-tetrahydropyridin-4-yl]-7H-pyrrolo[2,3-d]pyrimidine], for which, on CDK9/Cyclin T1, the midpoint of inhibition, the IC50, lay at 180 nM. In addition, the EC50 with H929 cells is above 10000 nM.
As to `COc1ccc(F)cc1-c1ncnc2[nH]c(C3=CCN(S(=O)(=O)C(F)(F)F)CC3)cc12` [Example 40, 4-(5-fluoro-2-methoxyphenyl)-6-{1-[(trifluoromethyl)sulfonyl]-1,2,3,6-tetrahydropyridin-4-yl}-7H-pyrrolo[2,3-d]pyrimidine], half-maximal inhibition against CDK9/Cyclin T1 (IC50) was put at 150 nM. The compound also showed an EC50 in the experiment on H929 cells of 669 nM.
For `COc1ccc(F)cc1-c1ncnc2[nH]c(C3=CCN(C4CCC(C(=O)O)CC4)CC3)cc12` (stereo not shown) [Example 86, 4-{4-[4-(5-fluoro-2-methoxyphenyl)-7H-pyrrolo[2,3-d]pyrimidin-6-yl]-3,6-dihydropyridin-1(2H)-yl}cyclohexanecarboxylic acid] the same measures were 400 nM and 3600 nM.
For `CS(=O)(=O)N1CC=C(c2cc3c(-c4cc(NCc5ccccc5)ccc4F)ncnc3[nH]2)CC1` [Example 29, N-benzyl-4-fluoro-3-{6-[1-(methylsulfonyl)-1,2,3,6-tetrahydropyridin-4-yl]-7H-pyrrolo[2,3-d]pyrimidin-4-yl}aniline] the same measures were 130 nM and 290 nM.
For `CS(=O)(=O)N1CC=C(c2cc3c(-c4cc(NCC5CCCO5)ccc4F)ncnc3[nH]2)CC1` (stereo not shown) [Example 32, 4-fluoro-3-{6-[1-(methylsulfonyl)-1,2,3,6-tetrahydropyridin-4-yl]-7H-pyrrolo[2,3-d]pyrimidin-4-yl}-N-(tetrahydrofuran-2-ylmethyl)aniline] the same measures were 260 nM and 3600 nM.
For `COc1ccc(F)cc1-c1ncnc2[nH]c(C3=CCN(CC4CCNCC4)CC3)cc12` [Example 39, 4-(5-fluoro-2-methoxyphenyl)-6-[1-(piperidin-4-ylmethyl)-1,2,3,6-tetrahydropyridin-4-yl]-7H-pyrrolo[2,3-d]pyrimidine], the IC50 against CDK9/Cyclin T1 was determined as 210 nM. For the same compound, in the experiment on H929 cells, the EC50 came to 4740 nM.
The compound `COc1ccc(F)cc1-c1ncnc2[nH]c(C3=CCC(N[C@H](C(=O)O)C(C)C)CC3)cc12` (stereo partly drawn) [Example 78, N-{4-[4-(5-fluoro-2-methoxyphenyl)-7H-pyrrolo[2,3-d]pyrimidin-6-yl]cyclohex-3-en-1-yl}-L-valine] registered an IC50 against CDK9/Cyclin T1 of 750 nM. In the experiment on H929 cells, a half-maximal response (EC50) required 6800 nM.
For `COc1ccc(F)cc1-c1ncnc2[nH]c(C3=CCN(C(=O)C4CCN4)CC3)cc12` (stereo not shown) [Example 12, azetidin-2-yl{4-[4-(5-fluoro-2-methoxyphenyl)-7H-pyrrolo[2,3-d]pyrimidin-6-yl]-3,6-dihydropyridin-1(2H)-yl}methanone], in that order: 88 nM and 930 nM.
For `COc1ccc(F)cc1-c1ncnc2[nH]c(C3=CCN(C(=O)C4CC(=O)N4)CC3)cc12` (stereo not shown) [Example 13, 4-({4-[4-(5-fluoro-2-methoxyphenyl)-7H-pyrrolo[2,3-d]pyrimidin-6-yl]-3,6-dihydropyridin-1(2H)-yl}carbonyl)azetidin-2-one], in that order: 69 nM and 840 nM.

The term IC50 denotes the concentration needed to halve the response being measured. Higher therefore signals lower potency. For orientation: EC50 means the concentration giving half of the maximal effect. A higher EC50 goes with a less potent agent.

For the origin of these results see patent publication US9346813B2, “Substituted pyrrolo[2,3-d]pyrimindines as CDK9 kinase inhibitors” (AbbVie Inc., priority 2014, dated 2016).
